Reference: patent US20040014637A1, “Mechanism for the inactivation of insulin receptor and uses in the treatment of type II diabetes” (McGill University, priority 1998, published 2004)
One block for each compound: values may come before it.

What was measured:
[1] = target: T1, insulin receptor (Rattus norvegicus, UniProt P15127); assay: 125I-insulin binding after preincubating endosomes (ENs containing IR) with nucleotides; settings: Table 2; addition 10 mM, 37° C. 15 min; normalized to endosomes without nucleotide
T1 construct: from tissue; host or cells: rat liver; endosome (EN) and plasma membrane (PM) fractions
Experimental: Rats were anaesthetized with ether and were injected via jugular vein with a dose (per 100 g body weight) of insulin (1.5 μg), or bpV(phen) (0.6 μmol), dissolved in 0.2 ml. phosphate buffered saline (pH 7.4) −0.1% BSA. […] Livers were rapidly excised, placed in ice-cold homogenizing buffer (50 mM HEPES (pH 7.4), 0.25 M sucrose, 1 mM PMSF, 1 MM MgCl2, 1 mM benzamidine) and minced before homogenization. […] These subcellular fractions have been characterized in detail both morphologically and biochemically.
After 10 min at room temperature, the reactions was terminated by spotting 50 μl aliquots on Whatman 3 MM filters.
In the present study we wished to assess whether other processes might be involved in reducing the association of intraendosomal insulin with its receptor. We examined the effect of incubating intact ENs containing IR with increasing concentrations of ATP on subsequently measured insulin and hGH binding in both solubilized and WGA-purified receptors.

[2] = target: T2, insulin receptor kinase (IRK) (Rattus norvegicus, UniProt P15127); assay: Insulin receptor kinase (IRK) exogenous tyrosine kinase activity, Poly (Glu:Tyr) (4:1) substrate, WGA-purified IRK from preincubated cell fractions; type: biochemical
T2 construct: from tissue; host or cells: rat liver; endosome (EN) and plasma membrane (PM) fractions

[3] = target: T3, insulin receptor kinase (IRK) β-subunit (Rattus norvegicus, UniProt P15127); assay: IRK β-subunit phosphotyrosine content (αPY immunoblot of WGA eluates); type: biochemical
T3 construct: from tissue; host or cells: rat liver; endosome (EN) and plasma membrane (PM) fractions
Experimental: The phosphotyrosine content of endosomal IRs (ENs containing IR) was determined by subjecting lectin column (WGA-Sepharose™)-purified preparations to SDS-PAGE and immunoblotting with α960 and αPY (Faure et al. (1992) J. Biol. Chem. 267, 11215-11221). […] FIG. 1B illustrates the effect of ATP on β subunit phosphotyrosine content. WGA eluates (5 μg protein) were subjected to SDS-PAGE in 7.5% gels followed by transfer of proteins to Immobilon-P membranes. Membranes were probed with αPY or α960 antibodies followed by incubation with ^125I-GAR as second antibody and exposed for autoradiography.

[4] = treatment of Type II diabetic patients; cited from earlier work
[5] = test system: intraendosomal insulin degradation; settings: cited from earlier work

T1 sequence (P15127 27-759 limits assumed): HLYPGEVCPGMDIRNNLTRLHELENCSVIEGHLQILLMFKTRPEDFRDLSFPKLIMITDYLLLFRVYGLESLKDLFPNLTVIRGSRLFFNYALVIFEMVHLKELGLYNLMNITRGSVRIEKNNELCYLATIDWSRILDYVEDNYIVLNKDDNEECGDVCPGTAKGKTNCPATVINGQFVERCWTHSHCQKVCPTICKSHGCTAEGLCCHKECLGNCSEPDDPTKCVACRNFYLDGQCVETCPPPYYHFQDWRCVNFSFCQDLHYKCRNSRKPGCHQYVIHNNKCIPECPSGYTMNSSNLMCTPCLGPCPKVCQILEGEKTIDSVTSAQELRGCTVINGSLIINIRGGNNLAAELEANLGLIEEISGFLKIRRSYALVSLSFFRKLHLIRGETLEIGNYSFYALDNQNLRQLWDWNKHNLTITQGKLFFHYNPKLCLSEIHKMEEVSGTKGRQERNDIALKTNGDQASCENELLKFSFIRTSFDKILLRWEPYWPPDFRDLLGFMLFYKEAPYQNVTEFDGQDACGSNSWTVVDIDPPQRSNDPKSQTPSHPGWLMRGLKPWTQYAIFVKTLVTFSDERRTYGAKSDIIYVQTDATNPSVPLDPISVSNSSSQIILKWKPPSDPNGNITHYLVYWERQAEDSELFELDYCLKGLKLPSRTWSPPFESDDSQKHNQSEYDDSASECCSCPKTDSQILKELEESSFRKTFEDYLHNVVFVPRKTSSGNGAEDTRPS
T1 sequence (P15127 764-1383 limits assumed): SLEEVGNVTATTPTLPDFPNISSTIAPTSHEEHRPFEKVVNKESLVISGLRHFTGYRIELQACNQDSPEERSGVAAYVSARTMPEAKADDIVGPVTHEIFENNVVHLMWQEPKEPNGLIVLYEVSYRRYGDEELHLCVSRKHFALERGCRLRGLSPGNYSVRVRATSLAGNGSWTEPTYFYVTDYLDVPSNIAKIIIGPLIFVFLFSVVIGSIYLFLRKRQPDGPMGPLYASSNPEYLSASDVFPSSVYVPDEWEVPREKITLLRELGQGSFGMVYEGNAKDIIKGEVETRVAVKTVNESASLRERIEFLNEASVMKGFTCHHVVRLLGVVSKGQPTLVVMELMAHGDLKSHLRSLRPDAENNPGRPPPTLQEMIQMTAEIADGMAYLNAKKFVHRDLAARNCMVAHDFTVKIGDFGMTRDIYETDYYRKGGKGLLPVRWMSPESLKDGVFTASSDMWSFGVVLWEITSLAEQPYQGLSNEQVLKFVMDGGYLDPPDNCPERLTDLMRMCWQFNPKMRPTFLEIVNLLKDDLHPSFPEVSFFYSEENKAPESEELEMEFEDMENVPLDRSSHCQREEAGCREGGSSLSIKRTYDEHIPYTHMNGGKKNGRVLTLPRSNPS
T2 sequence (P15127 27-759 limits assumed): as the sequence (P15127 27-759 limits assumed) above
T2 sequence (P15127 764-1383 limits assumed): as the sequence (P15127 764-1383 limits assumed) above
T3 sequence (P15127 27-759 limits assumed): as the sequence (P15127 27-759 limits assumed) above
T3 sequence (P15127 764-1383 limits assumed): as the sequence (P15127 764-1383 limits assumed) above

125I-Insulin specific binding (%), Solubilized endosomes [1]: 96.3 ± 6.4% | 125I-Insulin specific binding (%), WGA-purified endosomes [1]: 82.7 ± 5.2%
SMILES: Nc1ncnc2c1ncn2[C@@H]1O[C@H](COP(=O)(O)OP(=O)(O)O)[C@@H](O)[C@H]1O [ADP]

125I-Insulin specific binding (%), Solubilized endosomes [1]: 112.2 ± 2.8% | 125I-Insulin specific binding (%), WGA-purified endosomes [1]: 99.1 ± 1.0%
SMILES: Nc1ncnc2c1ncn2[C@@H]1O[C@H](COP(=O)(O)OP(=O)(O)NP(=O)(O)O)[C@@H](O)[C@H]1O [AMP—P—N—P]

125I-Insulin specific binding (%), Solubilized endosomes [1]: 94.5 ± 4.1% | 125I-Insulin specific binding (%), WGA-purified endosomes [1]: 105.9 ± 3.3%
SMILES: Nc1ncnc2c1ncn2[C@@H]1O[C@H](CO)[C@@H](O)[C@H]1O [Adenosine, adenosine]

Continued, compound first:

SMILES: Nc1ncnc2c1ncn2[C@@H]1O[C@H](COP(=O)(O)OP(=O)(O)CP(=O)(O)O)[C@@H](O)[C@H]1O [AMP—P—C—P]
125I-Insulin specific binding (%), Solubilized endosomes [1]: 109.1 ± 0.9% | 125I-Insulin specific binding (%), WGA-purified endosomes [1]: 95.1 ± 2.0% | Effect on level of IRK activity (FIG. 2) ([2]; 5 mM AMP-P-C-P, in the presence or absence of 1 mM ATP): no effect

SMILES: CO/C1=C\C(C)=C\[C@@H](C)[C@@H](O)[C@@H](C)C/C(C)=C/C=C/[C@H](OC)[C@@H]([C@@H](C)[C@@H](O)[C@H](C)[C@@]2(O)C[C@@H](O)[C@H](C)[C@@H](C(C)C)O2)OC1=O [Bafilomycin A1]
Effect on ability of ATP to reduce IRK activation (FIG. 4A) ([2]; 1 μM Bafilomycin A1 preincubation 30 min 37° C., then 5 and 10 mM ATP 15 min): marked attenuation | Effect on inhibition of IRK tyrosine phosphorylation and activity by 5 mM ATP ([2]; ENs containing IR incubated with 5 mM ATP): completely reversed | IRK activity in ENs after preincubation, before ATP additions ([2]; preincubation with 1 μM Bafilomycin A1, 30 min 37° C. (without: 1.3)): 1.4 pmol/10 min/10 fmol insulin binding | Level of IRK tyrosine phosphorylation at 5 mM ATP (FIG. 4B) ([3]; in the presence of Bafilomycin (1 μM), 5 mM ATP): comparable to that observed at 1 mM ATP

SMILES: O=P([O-])([O-])OP(=O)([O-])[O-].[Na+].[Na+].[Na+].[Na+] [NaPiPi, sodium pyrophosphate]
125I-Insulin specific binding (%), WGA-purified endosomes [1]: 97.8 ± 2.3%

SMILES: O.O.O.OO.OO.[K+].[OH-].[V].c1cnc2c(c1)ccc1cccnc12 [bpV(phen)]
Effect on suppression of IRK activity by 5 mM ATP (FIG. 6A) ([2]; coincubation of ENs with 0.1 mM bpV(phen)): did not prevent | IRK activity of ENs isolated from pretreated rats ([2]; rats given bpV(phen) 0.6 μmol/100 g body weight i.v., ENs at 15 min): augmented IRK activity | Effect on reduction in β-subunit tyrosine phosphorylation by 5 mM ATP (FIG. 6B) ([3]; bpV(phen) 0.1 mM in vitro or rats pretreated): did not influence the reduction

SMILES: CCN(CC)CCCC(C)Nc1ccnc2cc(Cl)ccc12 (stereo not shown) [chloroquine]
Glucose metabolism in Type II diabetic patients [4]: improve glucose metabolism | Intraendosomal insulin degradation [5]: inhibits intraendosomal insulin degradation
